This is an account of results in patent US4374248A, “3,4-Disubstituted-1,2,5-thiadiazole-1-oxide compounds” (Bristol-Myers Company, priority 1981, dated 1983).

Where two headings read alike, the source gives them in different places.

One data set has as its system Gastric Acid Output. The data set is described as follows: Gastric Antisecretory Activity in the Two Hour Pylorus Ligated (Shay) Rat. In kind it is in vivo, rat (Male Long Evans). The following applies: 2 h. The text has this: Med. Res., 3, 86 (1975). […] One of the standard animal models for determining gastric antisecretory activity of histamine H2 -antagonists is the pylorus ligated rat.
Determination of Gastric Antisecretory Activity in the Two Hour Pylorus Ligated (Shay) Rat
The pyloric ligation procedure in the rat was designed by Shay et al., Gastroenterology, 5, 53 (1945) for the study of perforating gastric ulcers; however, as the method became known, it was also employed as a means of studying rat gastric secretion, Shay et al., Gastroenterology, 26, 906 (1954), Brodie, D, A. Am. J. Dig. Dis., 11, 231 (1966). A modification of this procedure is presently used to evaluate compounds for gastric antisecretory activity.
Male Long Evans rats, 280-300 gm., are used. The animals are placed in individual cages and fasted for 24 hours with free access to water. Under ether anesthesia, the stomach is reached through a midline incision, and a cotton-thread ligature is placed around the pylorus. After wound closure, ether administration is stopped and the test compound or control vehicle is administered either intraperitoneally or subcutaneously in a volume of 1 ml./kg. All compounds are solubilized with one equivalent of HCl and brought to the proper volume with water. The animals are returned to their cages from which the water bottles have been removed and two hours later are sacrificed with ether. The stomach is removed and the two hour gastric collection is drained into a graduated test tube for volume determination. Titratable acidity is measured by titrating a one ml. sample to pH 7.0 with 0.02 NaOH, using an Autoburet and electrometric pH meter (Radiometer). Titratable acid output is calculated in microequivalents by multiplying the volume in milliliters by the acid concentration in milliequivalents per liter. The percent inhibition of acid output is calculated as follows [formula] At least five rats are used at each dosage level, and a minimum of three dosage levels are utilized for determination of a dose response curve. Initially this test was conducted utilizing intraperitoneal injection of the test compound or control vehicle. […] The route of administration of each compound is noted in Table 1.

The conditions of data set [1]: clinical; cited from earlier work.
The next data set deals with H2 -receptor. The following applies: cited from earlier work.
A further data set deals with peptic ulcer disease. The following applies: Gray et al., Lancet, 1, 8001 (1977); cited from earlier work.
For data set [2] the following is noted: in vivo; cited from earlier work.
A further data set concerns gastric secretion. Conditions: cited from earlier work.
Setting [3] is: sc, s.c. administration, two hour gastric acid output, 95% confidence limits in parenthesis, read-out: ED50.

As usually defined, the ED50 is the dose at which the effect has come halfway, by size or by number of responders. On to `Nc1n[s+]([O-])nc1NCCCOc1cccc(CN2CCCCCC2)c1` (stereo not shown) [145 c], for which the ED50 with Gastric Acid Output (setting [3]) worked out at 0.025 µmol/kg.
Consider `CCCCCCCCCCCCNC1=NS(=O)(=O)N=C1NCCSCc1ccc(CN(C)C)o1` [Example 106, 3-{2-[(5-Dimethylaminomethyl-2-furyl)methylthio]ethylamino}-4-dodecylamino-1,2,5-thiadiazole 1,1-dioxide], for which the ED50 in the data set with Gastric Acid Output (setting [3]) was approximately 80 µmol/kg.
The same measure, in the same setting: the value for `CNC1=NS(=O)(=O)N=C1NCCCOc1cccc(CN2CCOCC2)c1` [144 d] was 0.91 µmol/kg.
The same measure, in the same setting: the value for `NC1=NS(=O)(=O)N=C1NCCCOc1cccc(CN2CCCC2)c1` [146 a] was 0.023 µmol/kg; that for `CN(C)Cc1ccc(CSCCNC2=NS(=O)(=O)N=C2N(C)C)o1` [Example 28, 3-{2-[(5-Dimethylaminomethyl-2-furyl)methylthio]ethylamino}-4-dimethylamino-1,2,5-thiadiazole 1,1-dioxide] was 1.39 µmol/kg; that for `Nc1n[s+]([O-])nc1NCCCOc1cccc(CN2CCCC2)c1` (stereo not shown) [145 a] was 0.056 µmol/kg.
Consider `CN(C)Cc1ccc(CSCCNC2=NS(=O)(=O)N=C2NCCSCc2ccc(CN(C)C)o2)o1` [11 C], for which, in the data set on Gastric Acid Output (setting [3]), the ED50 was determined as 0.2 µmol/kg.
Regarding `CNC(=NC#N)NCCSCc1nc[nH]c1C` [Cimetidine], the “toxicity (agranulocytosis)” value in data set [1] is listed as “without producing agranulocytosis”. The compound further gave an ED50 in the data set with Gastric Acid Output of approximately 9 µmol/kg. The “H2 -antagonist potency/effectiveness relative to another antagonist” value in the data set on H2 -receptor is “as effective an H2 -antagonist as metiamide”. The “therapeutic effect in peptic ulcer disease” value in the data set on peptic ulcer disease is reported as “effective therapeutic agent in the treatment of peptic ulcer disease”.
In the case of `Nc1n[s+]([O-])nc1NCCCOc1cccc(CN2CCCCCCC2)c1` (stereo not shown) [145 d], in the data set on Gastric Acid Output (setting [3]), the ED50 is 0.05 µmol/kg.
The same measure, in the same setting: the value for `CNC1=NS(=O)(=O)N=C1NCCCOc1cccc(CN2CCC(C)CC2)c1` [144 b] was 0.025 µmol/kg.
With `NC1=NS(=O)(=O)N=C1NCCCOc1cccc(CN2CCOCC2)c1` [146 d], in the data set on Gastric Acid Output (setting [3]), the ED50 was found to be 0.28 µmol/kg.
For `CNC(=S)NCCCCc1cnc[nH]1` [Burimamide], the oral absorption entry in data set [2] was “poor”. For the same compound, the “inhibition of gastric secretion” value with gastric secretion (animals and man) was “inhibits gastric secretion in animals and man”.
Consider `CNC1=NS(=O)(=O)N=C1NCCCOc1cccc(CN2CCCCCC2)c1` [144 c], for which the ED50 in the data set on Gastric Acid Output (setting [3]) was 0.14 µmol/kg.
Turning to `CNCc1ccc(CSCCNC2=NS(=O)(=O)N=C2NC)o1` [20 A], the ED50 in the data set with Gastric Acid Output (setting [3]) turned out to be 1.15 µmol/kg.
Same read-out and setting: the value for `CNC1=NS(=O)(=O)N=C1NCCCOc1cccc(CN2CCCC2)c1` [144 a] was 0.095 µmol/kg; that for `CC1CCN(Cc2cccc(OCCCNc3n[s+]([O-])nc3N)c2)CC1` (stereo not shown) [145 b] was approximately 0.06 µmol/kg.
Turning to `CNC1=NS(=O)(=O)N=C1NCCSCc1ccc(CN(C)C)o1` [11 B], the ED50 in the data set with Gastric Acid Output (ip, i.p. administration, two hour gastric acid output, 95% confidence limits in parenthesis, read-out: ED50) was 0.69 µmol/kg.
For the compound `CNC(=S)NCCSCc1nc[nH]c1C` [Metiamide], in data set [1], the “toxicity (agranulocytosis)” value was “toxicity (agranulocytosis)”. The “H2 -antagonist potency/effectiveness relative to another antagonist” value with H2 -receptor was “more potent than burimamide”. Besides, the oral activity entry in the data set with gastric secretion (in man, oral) was “orally active in man”.
In the case of `CN(C)Cc1ccc(CSCCNC2=NS(=O)(=O)N=C2N2CCCCC2)o1` [Example 102, 3-{2-[(5-Dimethylaminomethyl-2-furyl)methylthio]ethylamino}-4-piperidino-1,2,5-thiadiazole 1,1-dioxide], the ED50 in the data set on Gastric Acid Output (setting [3]) is approximately 15 µmol/kg.
